According to patent US20090041751A1, “Sepsis Prevention Through Adenosine Receptor Modulation” (priority 2005, published 2009):
Entries after “also recorded” stand apart in the source; their conditions may differ.

Tests used:
mice subjected to CLP = assay: Survival after cecal ligation and puncture (CLP)-induced sepsis; format: in vivo, mouse; details: CD-1 mice
From the text: For pharmacological studies with the selective A2A receptor antagonist 4-(2-[7-amino-2-(2-furyl)[1,2,4]triazolo[2,3-a][1,3,5]triazin-5-ylamino]ethyl)phenol(4-(2-[7-amino-2-(2-furyl[1,2,4]-triazolo[2,3-a[1,3,5]triazin-5-yl-aminoethyl)phenol (“ZM241385”); Tocris Cookson Inc.), male CD-1 mice were used that were purchased from Charles River Laboratories.
Polymicrobial sepsis was induced by subjecting mice to CLP, as we have described previously, with some modifications. Six-to-eight-week-old male A2a receptor KO or WT mice were anesthetized with Nembutal (80 mg/kg), given i.p. Under aseptic conditions, a 2-cm midline laparotomy was performed to allow exposure of the cecum with adjoining intestine. Approximately two-thirds of the cecum was tightly ligated with a 3.0 silk suture, and the ligated part of the cecum perforated twice (through and through) with a 20-gauge needle (Beckton Dickinson). The cecum was then gently squeezed to extrude a small amount of feces from the perforation sites. The cecum was then returned to the peritoneal cavity and the laparotomy closed in two layers with 4.0 silk sutures. Sham-operated animals underwent the same procedure without ligation or puncture of the cecum. The mice were resuscitated with 1 ml of physiological saline injected s.c., and returned to their cages with free access to food and water. One group of mice was monitored daily and survival recorded for 10 days. Another group of mice was re-anesthetized with Nembutal (80 mg/kg; i.p.) 16 or 48 hours after the operation, and blood, peritoneal lavage fluid, and various organs were harvested as described below.
The effect of pharmacological inactivation of A2A receptors in mice subjected to CLP was evaluated using CD-1 mice in a similar fashion to that described for the A2A receptor KO or WT mice. […]
Survival curves were analyzed using the two-tailed Fisher's exact test. […]

[1] = tested on: IL-10, IL-6, MIP-2, IL-12; assay: Cytokine levels (ELISA) in plasma and peritoneal lavage fluid after CLP; format: in vivo, mouse
Method: The effect of pharmacological inactivation of A2A receptors in mice subjected to CLP was evaluated using CD-1 mice in a similar fashion to that described for the A2A receptor KO or WT mice. In this set of experiments, the mice were injected immediately before or 2 hours after the operation and every 12 hours thereafter with 4-(2-[7-amino-2-(2-furyl[1,2,4]-triazolo[2,3-a[1,3,5]triazin-5-yl-aminoethyl)phenol (“ZM241385”) (15 mg/kg, s.c.) or its vehicle (DMSO). Blood samples were obtained aseptically by cardiac puncture using heparinized syringes after opening the chest and placed on ice into heparinized Eppendorf tubes until further processing for hematological and bacteriological analysis. Aliquots of whole blood were analyzed for hematology by flow cytometry (CELL-DYN 3200 System, Abbott Laboratories) in a centralized facility. After serial dilutions for bacteriological analysis were made (see below), the blood was centrifuged at 2000×g for ten minutes and the recovered plasma stored at −70° C. until further use. For peritoneal lavage, the abdominal skin was cleansed with 70% ethanol and the abdominal wall exposed by opening the skin. Four milliliters of sterile physiological saline was then installed into the peritoneal cavity via an 18-gauge needle. The abdomen was massaged gently for 1 minute while keeping the tip of the needle in the peritoneum, after which procedure peritoneal fluid was recovered through the needle. Recovered peritoneal lavage fluid was placed on ice until processed for bacteriological examination. After serially diluting the peritoneal lavage fluid to determine CFU numbers (see below), the peritoneal lavage fluid was centrifuged at 5000×g for ten minutes and the supernatant stored at −70° C. until further analysis. Samples from spleen, thymus, lung, kidneys, and liver were excised and either immediately frozen in liquid nitrogen or placed in 10% paraformaldehyde for subsequent histological analysis. Snap-frozen tissue samples were transferred to a −70° C. refrigerator until analyzed for gene expression and apoptotic markers. Concentrations of IL-10, IL-6, IL-12 p70, TNF-α and MIP-2, in plasma or peritoneal lavage fluid were determined using commercially available ELISA kits (R&D Systems) and according to the manufacturer's instructions. The lower detection limit for all these cytokines was 10 pg/ml. Plasma concentrations of AST, ALT, and BUN were analyzed using standard laboratory procedures. Survival curves were analyzed using the two-tailed Fisher's exact test. Two-tailed t testing was used to compare cytokine concentrations, CFUs, and other laboratory parameters. Statistical significance was assigned to p values smaller than 0.05.

[2] = 15 mg/kg s.c. twice daily, 16 hours after CLP, FIG. 6C
[3] = 15 mg/kg s.c. twice daily, 16 hours after CLP, FIG. 6D
[4] = 15 mg/kg s.c. twice daily, 16 hours after CLP, FIG. 6E
[5] = mouse CLP sepsis model, FIG. 10, matrix not stated

Question: What does the source list for Nc1nc(NCCc2ccc(O)cc2)nc2nc(-c3ccco3)nn12 [ZM241385]?
Answer: survival after CLP vs vehicle-treated mice, delayed administration (mice subjected to CLP; 15 mg/kg s.c. twice daily starting 2 hours after resuscitation, survival monitored 5 days, FIG. 6B, 15 mg/kg): still protective; also recorded: protects mice from death; survival after CLP vs vehicle-treated mice (mice subjected to CLP; 15 mg/kg s.c. twice daily starting at time of resuscitation (time 0), survival monitored 5 days, FIG. 6A, 15 mg/kg): significantly improved survival; also recorded: protects mice from death; survival after CLP (mice subjected to CLP; survival recorded for 2 days, FIG. 9): improved survival; IL-10 level in peritoneal lavage fluid vs vehicle-treated mice [1, 2]: decreased; IL-10 level in plasma vs vehicle-treated mice [1, 2]: decreased; IL-6 concentration in plasma vs vehicle-treated mice [1, 3]: comparable; IL-6 level in peritoneal fluid vs vehicle-treated mice [1, 3]: lower; also recorded: attenuated; MIP-2 level in peritoneal lavage fluid vs vehicle-treated mice [1, 4]: decreased; MIP-2 level in plasma vs vehicle-treated mice [1, 4]: decreased; IL-10 levels vs vehicle treated mice [1, 5]: Decreased levels; IL-12 concentrations vs vehicle treated mice [1, 5]: comparable; MIP-2 levels vs vehicle treated mice [1, 5]: Decreased levels
